{
  "source": "ChEMBL document CHEMBL1131768",
  "about": "“Orally bioavailable nonpeptide vitronectin receptor antagonists containing 2-aminopyridine arginine mimetics” (Bioorg Med Chem Lett, 1999)",
  "key": {"in vivo [1]": {"experiment": "in vivo", "conditions": "rat, iv"}, "in vivo [2]": {"experiment": "in vivo", "conditions": "dog, iv"}, "in vivo [3]": {"experiment": "in vivo", "conditions": "dog, po"}, "in vivo [4]": {"experiment": "in vivo", "conditions": "rat, po"}, "in vivo [5]": {"experiment": "in vivo", "conditions": "rat, iv", "remark": "listed apart in the source"}, "in vivo [6]": {"experiment": "in vivo", "conditions": "dog, iv", "remark": "listed apart in the source"}},
  "data": [
    {"smiles": "CN1Cc2cc(C(=O)NCc3cccc(N)n3)ccc2N[C@@H](CC(=O)O)C1=O", "values": [
      {"measurement": "clearance", "setting": "in vivo [1]", "value": 63, "unit": "mL/min/kg"},
      {"measurement": "clearance", "setting": "in vivo [2]", "value": 7.8, "unit": "mL/min/kg"},
      {"measurement": "bioavailability", "setting": "in vivo [3]", "value": 10, "unit": "%"},
      {"measurement": "bioavailability", "setting": "in vivo [4]", "value": 13, "unit": "%"},
      {"measurement": "half-life", "setting": "in vivo [5]", "value": 45, "unit": "min"},
      {"measurement": "half-life", "setting": "in vivo [6]", "value": 47, "unit": "min"}
    ]}
  ]
}
